Test results taken from PMC10571751, “Polyarginine Cell-Penetrating Peptides Bind and Inhibit SERCA2” (Cells, 2023).
Where no end group is shown, it is not given here. The star is where a group is joined. Biotin = O=C1N[C@H]2[C@H](CS[C@H]2CCCCC(=O)*)N1

B1: biotin-Arg11 (peptide)
peptide: Biotin-RRRRRRRRRRR
notes: polyarginine cell-penetrating peptide of 11 arginines; Peptides were synthesized with or without the N-terminal biotin; ELISA and SPR used the biotinylated form; also called biotinylated Arg11; polyarginine CPP; source: synthetic peptide (GenScript Biotech Corp, >80% purity)

How the values were obtained:
rat SERCA2b = assay: Oxalate-supported Ca2+ uptake in homogenates of HEK293 cells transfected with SERCA2b; format: biochemical; conditions: for Ca2+ uptake, SERCA2b-transfected cells, versus untreated: nruns Ctr, Arg9, Arg11 = 12, 12, 12
Description: (§1) 10–20 µL of freshly thawed and vortexed homogenate was added to 250 µL of “assay” buffer, containing (in mmol/L) 165 KCl, 22 Hepes, 7.5 oxalate, 11 NaN3, 0.0055 TPEN, 4.5 MgCl2, 9 Tris HCl, and 0.002 Fura-2 salt (pH 7.0, 37 °C). Each CPP was added to attain a final concentration of 40 µmol/L and incubated for 5 min at 37 °C prior to experiments.
(§2) Ca^2+ fluxes were monitored as Fura-2 fluorescence ratio (340 nm/390 nm) using a Hidex Sense Multimodal Microplate Reader (Kem-En-Tec Nordic AS, Uppsala, Sweden). Ca^2+ uptake by the vesicles was initiated by the addition of Na4ATP (2.2 mmol/L) and blocked by the application of thapsigargin (1.5 µmol/L) after 12 min [16]. SR Ca^2+ content, i.e., the “releasable Ca^2+” was estimated by adding the ryanodine receptor opener 4-Chloro-m-cresol (CmC, 5.5 mmol/L). The fluorescence ratio was calibrated to [Ca^2+] using the following equation: [Ca^2+] = Kd × ((R − Rmin)/(Rmax − R)) × (Sf2/Sb2), where R is the 340 nm/390 nm fluorescence ratio, and Kd is the dissociation constant of Fura-2 and Ca^2+ (224 nmol/L). Rmin is the fluorescence ratio at very low [Ca^2+] and Rmax is the ratio at saturating [Ca^2+], obtained by sequentially adding 3.3 mmol/L EGTA and 4.8 mmol/L CaCl2 to the well at the end of each recording. Sf2/Sb2 is the ratio of measured fluorescence intensity at 390 nm when Fura-2 is Ca^2+-free (3.3 mmol/L EGTA) or Ca^2+-bound (4.8 mmol/L CaCl2).
(§3) Ca^2+ recordings were smoothed using TableCurve 2D (V 5.01, Systat Software Inc., Palo Alto, CA, USA) prior to analysis. After the addition of Na4ATP, the rate constant for Ca^2+ uptake (k) was calculated by fitting the uptake curve to Ca^2+ = Ca^2+0 + ae^−t×k (Sigmaplot V14.0, Systat Software Inc.). Ca^2+ leak from the vesicles was calculated as the linear rise (slope) of the Ca^2+ signal after blockade of SERCA by thapsigargin. Leak measurements were normalized to SR content, determined as the peak [Ca^2+] after addition of CmC. […]

[1] = system: SERCA (SR vesicles from mouse left ventricle; SERCA2a); assay: Oxalate-supported SR Ca2+ uptake and leak in mouse left ventricular homogenates (wild-type); format: biochemical, mouse (C57BL/6NT); conditions: 40 µmol/L CPP without cargo, 5 min, 37 °C, pH 7.0; uptake started with Na4ATP; Fura-2 340/390; nruns Ctr, TAT, Arg9, Arg11 = 69, 14, 23, 24
Description: (§4) Ca^2+ handling was also examined in homogenates prepared from mouse left ventricle, rat soleus, and rat extensor digitorum longus (EDL) muscles using methods described by O’Brien and modified by Li et al.. Freshly excised left ventricles and muscles were weighed and homogenized in ice cold homogenization buffer (1:10 wet weight/vol, pH 7.9) containing (in mmol/L) 300 sucrose, 5 NaN3, 1 EDTA, 40 L-histidine, 40 Tris HCl, and protease inhibitors (Complete EDTA-free No 05056489001, Roche, Mannheim, Germany). Homogenization was performed with a Polytron 1200 (Kinematica AG, Luzern, Switzerland) at 25,000 rpm for 3 × 20 s, with a 20 s break between bursts. Homogenates were then aliquoted, frozen in liquid N2, and stored at −80 °C until use.
(§5) 10–20 µL of freshly thawed and vortexed homogenate was added to 250 µL of “assay” buffer, containing (in mmol/L) 165 KCl, 22 Hepes, 7.5 oxalate, 11 NaN3, 0.0055 TPEN, 4.5 MgCl2, 9 Tris HCl, and 0.002 Fura-2 salt (pH 7.0, 37 °C). […]
(§6) Ca^2+ fluxes were monitored as Fura-2 fluorescence ratio (340 nm/390 nm) using a Hidex Sense Multimodal Microplate Reader (Kem-En-Tec Nordic AS, Uppsala, Sweden). […] The fluorescence ratio was calibrated to [Ca^2+] using the following equation: [Ca^2+] = Kd × ((R − Rmin)/(Rmax − R)) × (Sf2/Sb2), where R is the 340 nm/390 nm fluorescence ratio, and Kd is the dissociation constant of Fura-2 and Ca^2+ (224 nmol/L). Rmin is the fluorescence ratio at very low [Ca^2+] and Rmax is the ratio at saturating [Ca^2+], obtained by sequentially adding 3.3 mmol/L EGTA and 4.8 mmol/L CaCl2 to the well at the end of each recording. Sf2/Sb2 is the ratio of measured fluorescence intensity at 390 nm when Fura-2 is Ca^2+-free (3.3 mmol/L EGTA) or Ca^2+-bound (4.8 mmol/L CaCl2).
(§7) Ca^2+ recordings were smoothed using TableCurve 2D (V 5.01, Systat Software Inc., Palo Alto, CA, USA) prior to analysis. After the addition of Na4ATP, the rate constant for Ca^2+ uptake (k) was calculated by fitting the uptake curve to Ca^2+ = Ca^2+0 + ae^−t×k (Sigmaplot V14.0, Systat Software Inc.). […]

[2] = system: SERCA (rat soleus homogenates; SERCA2a); assay: Oxalate-supported Ca2+ uptake, leak and releasable Ca2+ in rat soleus homogenates; format: biochemical, rat (Wistar); conditions: 40 µmol/L CPP without cargo, 5 min, 37 °C, pH 7.0; nruns Ctr, TAT, Arg9, Arg11 = 6, 5, 6, 6
Description: as §4, §5, §6, §7

[3] = system: rat left ventricular cardiomyocytes; assay: Field-stimulated whole-cell Ca2+ transients in isolated rat cardiomyocytes; format: cell-based, rat (Wistar); conditions: versus untreated Ctr, 5 µmol/L, 1 h preincubation, 1 Hz, 37 °C
Description: For single cell experiments, rat left ventricular cardiomyocytes were isolated as described previously. In brief, rats were anaesthetized by inhalation of a mixture of 5% isoflurane and 95% O2. Hearts were then rapidly excised and mounted via the aorta on a Langendorff apparatus to enable retrograde perfusion with buffer containing collagenase Type II (Worthington Biochemical Corporation, Lakewood, NJ, USA). Following digestion, the heart was cut down, diced, and agitated, and isolated cardiomyocytes were then filtered, washed, and sedimented. Cells were stored in a solution containing (in mmol/L) 130 NaCl, 5.4 KCl, 25 HEPES, 0.5 MgCl2, 0.4 NaH2PO4, 22 glucose, 0.2 CaCl2 (pH 7.40, 22 °C) until use, within 6 h of isolation.
Prior to experiments, cardiomyocytes were preincubated for 1 h with 5 µmol/L of the individual CPPs added to the cell storage solution. During the last 10 min of incubation, cells were additionally loaded with fluo-4 AM (5 µmol/L, Thermo Fisher Scientific, Waltham, MA, USA) for Ca^2+ imaging. The cells were then plated on the stage of an inverted microscope and perfused with HEPES-Tyrode solution containing (in mmol/L) 140 NaCl, 0.5 MgCl2, 5.0 HEPES, 5.5 glucose, 0.4 NaH2PO4, 5.4 KCl, and 1.8 CaCl2 at pH 7.4, 37 °C. Whole-cell Ca^2+ transients were recorded by wide-field photometry, as described previously, using a D-104 microscope photometer and photomultiplier tube (Horiba Ltd., Kyoto, Japan). During field stimulation at 1 Hz, fluorescence was excited by a 475 nm light-emitting diode, and emission was collected at >510 nm.
Ca^2+ signals were analysed by first subtracting background fluorescence values from the cellular recordings. Ca^2+ transient magnitude was calculated as peak fluorescence divided by resting fluorescence (F/F0). The decay time of Ca^2+ transients was assessed using a monoexponential fit of the declining phase of the Ca^2+ transient to calculate tau (s), using Clampfit 10.4 software (Molecular Devices LLC, Sunnyvale, CA, USA).

rat SERCA2a = assay: Oxalate-supported Ca2+ uptake in homogenates of HEK293 cells transfected with SERCA2a; format: biochemical; conditions: for Ca2+ uptake, SERCA2a-transfected cells, versus untreated: nruns Ctr, Arg9, Arg11 = 12, 16, 16
Description: as §1, §2, §3

rat SERCA3 = assay: Oxalate-supported Ca2+ uptake in homogenates of HEK293 cells transfected with SERCA3; format: biochemical; conditions: nruns Ctr, Arg9, Arg11 = 4, 5, 5
Description: as §1
(§8) Ca^2+ fluxes were monitored as Fura-2 fluorescence ratio (340 nm/390 nm) using a Hidex Sense Multimodal Microplate Reader (Kem-En-Tec Nordic AS, Uppsala, Sweden). Ca^2+ uptake by the vesicles was initiated by the addition of Na4ATP (2.2 mmol/L) and blocked by the application of thapsigargin (1.5 µmol/L) after 12 min [16]. […] The fluorescence ratio was calibrated to [Ca^2+] using the following equation: [Ca^2+] = Kd × ((R − Rmin)/(Rmax − R)) × (Sf2/Sb2), where R is the 340 nm/390 nm fluorescence ratio, and Kd is the dissociation constant of Fura-2 and Ca^2+ (224 nmol/L). Rmin is the fluorescence ratio at very low [Ca^2+] and Rmax is the ratio at saturating [Ca^2+], obtained by sequentially adding 3.3 mmol/L EGTA and 4.8 mmol/L CaCl2 to the well at the end of each recording. Sf2/Sb2 is the ratio of measured fluorescence intensity at 390 nm when Fura-2 is Ca^2+-free (3.3 mmol/L EGTA) or Ca^2+-bound (4.8 mmol/L CaCl2). […]

[4] = system: SERCA (SR vesicles from left ventricle of PLB knockout mice); assay: Oxalate-supported SR Ca2+ uptake and leak in left ventricular homogenates of phospholamban knockout mice; format: biochemical, mouse (phospholamban knockout); conditions: 40 µmol/L CPP without cargo, 5 min, 37 °C, pH 7.0; nruns Ctr, TAT, Arg9, Arg11 = 58, 12, 17, 15
Description: as §4, §5, §6, §7

rat SERCA1 = assay: Oxalate-supported Ca2+ uptake in homogenates of HEK293 cells transfected with SERCA1; format: biochemical; conditions: nruns Ctr, Arg9, Arg11 = 4, 5, 5
Description: as §1, §8

[5] = system: SERCA (rat EDL homogenates; SERCA1); assay: Oxalate-supported Ca2+ uptake, leak and releasable Ca2+ in rat EDL homogenates; format: biochemical, rat (Wistar); conditions: 40 µmol/L, 5 min, 37 °C, pH 7.0; without (Figure 4B) and with cargo (Figure 4D)
Description: as §4, with “use. […]” for “use.”
as §6, with “Sf2/Sb2 is the ratio of measured fluorescence intensity at 390 nm when Fura-2 is Ca^2+-free (3.3 mmol/L EGTA) or Ca^2+-bound (4.8 mmol/L CaCl2).” left out

12xHis-SERCA2(111-253) = target: T1, 12xHis-SERCA2(111-253) (UniProt P16615 111-253); assay: SPR; Biacore X100; biotinylated Arg11 immobilised on an SA chip at 744.3 RU; 12xHis-SERCA2(111-253) injected at 0.7–200 nM, 0.19–50 nM or 12.5–200 nM, 30 µL/minute for 180 s; dissociation 600 or 1000 s; 1 × Biacore running buffer; one-to-one Langmuir model; conditions: both partners purified
T1 construct: also called recombinant SERCA2 polypeptide containing the A-domain; actuator domain of SERCA2; source: recombinant, generated by Genscript; dialysed into Biacore running buffer for SPR
T1 sequence (P16615 111-253): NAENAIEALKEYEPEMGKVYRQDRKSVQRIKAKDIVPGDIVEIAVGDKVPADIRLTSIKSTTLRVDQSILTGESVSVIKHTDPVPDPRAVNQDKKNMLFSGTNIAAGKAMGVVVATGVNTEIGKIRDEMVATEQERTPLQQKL

Molecule | inhibition of Ca2+ uptake compared with Arg9, SERCA2b (rat SERCA2b; comparison Arg11 versus Arg9) | Ca2+ uptake, SERCA2b-transfected cells, versus untreated (rat SERCA2b) | Ca2+ uptake rate, effect versus untreated control [1] | Ca2+ uptake rate in soleus, effect versus untreated control [2] | effect on Ca2+ transient decay (tau), in words [3] | increase in tau value for Ca2+ removal (Ca2+ transient decay) ([3]; p = 0.021, ncells Ctr 37, Arg11 31, 4 hearts) [%] | inhibition of Ca2+ uptake compared with Arg9, SERCA2a (rat SERCA2a; comparison Arg11 versus Arg9) | Ca2+ uptake, SERCA2a-transfected cells, versus untreated (rat SERCA2a) | Ca2+ uptake rate, SERCA3-transfected cells, versus untreated (rat SERCA3) | Ca2+ uptake, PLB knockout, effect versus untreated control [4] | Ca2+ uptake rate, SERCA1-transfected cells, versus untreated (rat SERCA1) | Ca2+ uptake rate in EDL, effect versus untreated control [5] | Kd (12xHis-SERCA2(111-253)) [nM] | koff (12xHis-SERCA2(111-253)) [s⁻¹] | kon (12xHis-SERCA2(111-253)) [M⁻¹ s⁻¹]
RRRRRRRRRRR [Arg11] | tended to be more marked than that induced by Arg9 | significantly slowed Ca^2+ uptake | marked slowing of Ca^2+ uptake | most marked effect | slowing of Ca^2+ transient decay | 14 | tended to be more marked than that induced by Arg9 | significantly slowed Ca^2+ uptake | Neither Arg9 nor Arg11 altered the Ca^2+ uptake rate | tending to cause the most marked inhibition of Ca^2+ uptake | Neither Arg9 nor Arg11 altered the Ca^2+ uptake rate | – | – | – | –
RKKRRQRRR [TAT, reference compound] | – | – | no significant effect | did not alter the rate of Ca^2+ uptake | No such effects were noted | – | – | – | – | did not observe inhibition of SERCA2 activity | – | did not observe inhibition of SERCA2 activity | – | – | –
RRRRRRRRR [Arg9] | – | significantly slowed Ca^2+ uptake | slowed Ca^2+ uptake, albeit to a lesser extent than Arg11 | lesser but statistically significant inhibition | No such effects were noted | – | – | significantly slowed Ca^2+ uptake | Neither Arg9 nor Arg11 altered the Ca^2+ uptake rate | lesser but statistically significant inhibition | Neither Arg9 nor Arg11 altered the Ca^2+ uptake rate | – | – | – | –
B1 | – | – | – | – | – | – | – | – | – | – | – | – | 0.4 | 6.6e-05 | 210000
